# Species: Rattus norvegicus
# Experiment: DrugMatrix - Regimen: Daily Repeat
# Assay type: toxicity, organism-based, Sprague-Dawley
# Parameters: regimen Daily Repeat, gender Male, age 6-8 weeks
# Settings: in vivo, sc, route subcutaneous, […]; for ABSOLUTE BASOPHIL / ABSOLUTE EOSINOPHIL / ABSOLUTE LYMPHOCYTE / ABSOLUTE MONOCYTE / ABSOLUTE SEGMENTED NEUTROPHIL / BASOPHIL / EOSINOPHIL / ERYTHROCYTE COUNT / HEMATOCRIT / HEMOGLOBIN / LEUKOCYTE COUNT / LYMPHOCYTE / MEAN CORPUSCULAR HEMOGLOBIN / MEAN CORPUSCULAR HEMOGLOBIN CONCENTRATION / MEAN CORPUSCULAR VOLUME / MONOCYTE / NEUTROPHIL / NUCLEATED RED BLOOD CELLS / PLATELET COUNT: tissue Blood; for ALANINE AMINOTRANSFERASE / ALBUMIN / ALKALINE PHOSPHATASE / ASPARTATE AMINOTRANSFERASE / BLOOD UREA NITROGEN / CARBON DIOXIDE / CHLORIDE / CHOLESTEROL / CREATINE PHOSPHOKINASE / CREATININE / GLUCOSE / LACTATE DEHYDROGENASE / LIPASE / PHOSPHORUS / POTASSIUM / SODIUM / TOTAL BILIRUBIN / TOTAL PROTEIN / URIC ACID: tissue Plasma
# [1] = 50 mg/kg, 120 h, dose level Low, time 5 day
# [2] = 150 mg/kg, 72 h, dose level M2, time 3 day
# [3] = 150 mg/kg, 120 h, dose level M2, time 5 day
smiles,measurement,setting,value
CC(C)(c1ccc(O)cc1)c1ccc(O)cc1 [BISPHENOL A],ABSOLUTE BASOPHIL,[1],0 CELLS/uL
same,ABSOLUTE EOSINOPHIL,[1],0 CELLS/uL
same,ABSOLUTE LYMPHOCYTE,[1],15258.67 CELLS/uL
same,ABSOLUTE MONOCYTE,[1],508.33 CELLS/uL
same,ABSOLUTE SEGMENTED NEUTROPHIL,[1],1433 CELLS/uL
same,BASOPHIL,[1],0%
same,EOSINOPHIL,[1],0%
same,ERYTHROCYTE COUNT,[1],5.65 x10E6/uL
same,HEMATOCRIT,[1],35.13%
same,HEMOGLOBIN,[1],13.73 G/DL
same,LEUKOCYTE COUNT,[1],17.2 x10E3/uL
same,LYMPHOCYTE,[1],89%
same,MEAN CORPUSCULAR HEMOGLOBIN,[1],24.33 pg
same,MEAN CORPUSCULAR HEMOGLOBIN CONCENTRATION,[1],39.07 G/DL
same,MEAN CORPUSCULAR VOLUME,[1],62.23 fL
same,MONOCYTE,[1],2.33%
same,NEUTROPHIL,[1],8.67%
same,NUCLEATED RED BLOOD CELLS,[1],0 /100WBC
same,PLATELET COUNT,[1],1289 x10E3/uL
same,ALANINE AMINOTRANSFERASE,[1],62.67 u/L
same,ALBUMIN,[1],3.57 G/DL
same,ALKALINE PHOSPHATASE,[1],300 u/L
same,ASPARTATE AMINOTRANSFERASE,[1],93 u/L
same,BLOOD UREA NITROGEN,[1],14.67 mg/dL
same,CARBON DIOXIDE,[1],24 mmol/L
same,CHLORIDE,[1],103.67 MEQ/L
same,CHOLESTEROL,[1],48.67 mg/dL
same,CREATINE PHOSPHOKINASE,[1],675.67 u/L
same,CREATININE,[1],0.15 mg/dL
same,GLUCOSE,[1],190.67 mg/dL
same,LACTATE DEHYDROGENASE,[1],256.67 u/L
same,LIPASE,[1],11.67 u/L
same,PHOSPHORUS,[1],13.4 mg/dL
same,POTASSIUM,[1],6.14 MEQ/L
same,SODIUM,[1],142.27 MEQ/L
same,TOTAL BILIRUBIN,[1],0.1 mg/dL
same,TOTAL PROTEIN,[1],5.27 G/DL
same,URIC ACID,[1],2.23 mg/dL
same,ABSOLUTE BASOPHIL,[2],0 CELLS/uL
same,ABSOLUTE EOSINOPHIL,[2],21 CELLS/uL
same,ABSOLUTE LYMPHOCYTE,[2],7705 CELLS/uL
same,ABSOLUTE MONOCYTE,[2],0 CELLS/uL
same,ABSOLUTE SEGMENTED NEUTROPHIL,[2],574 CELLS/uL
same,BASOPHIL,[2],0%
same,EOSINOPHIL,[2],0.33%
same,ERYTHROCYTE COUNT,[2],5.46 x10E6/uL
same,HEMATOCRIT,[2],34.77%
same,HEMOGLOBIN,[2],13.53 G/DL
same,LEUKOCYTE COUNT,[2],8.3 x10E3/uL
same,LYMPHOCYTE,[2],92.33%
same,MEAN CORPUSCULAR HEMOGLOBIN,[2],24.8 pg
same,MEAN CORPUSCULAR HEMOGLOBIN CONCENTRATION,[2],38.97 G/DL
same,MEAN CORPUSCULAR VOLUME,[2],63.67 fL
same,MONOCYTE,[2],0%
same,NEUTROPHIL,[2],7.33%
same,NUCLEATED RED BLOOD CELLS,[2],0 /100WBC
same,PLATELET COUNT,[2],1030 x10E3/uL
same,ALANINE AMINOTRANSFERASE,[2],54.67 u/L
same,ALBUMIN,[2],3.73 G/DL
same,ALKALINE PHOSPHATASE,[2],286.67 u/L
same,ASPARTATE AMINOTRANSFERASE,[2],73 u/L
same,BLOOD UREA NITROGEN,[2],9.33 mg/dL
same,CARBON DIOXIDE,[2],21 mmol/L
same,CHLORIDE,[2],96 MEQ/L
same,CHOLESTEROL,[2],72.67 mg/dL
same,CREATINE PHOSPHOKINASE,[2],254.33 u/L
same,CREATININE,[2],0.11 mg/dL
same,GLUCOSE,[2],143 mg/dL
same,LACTATE DEHYDROGENASE,[2],106.33 u/L
same,LIPASE,[2],8 u/L
same,PHOSPHORUS,[2],11.83 mg/dL
same,POTASSIUM,[2],5.68 MEQ/L
same,SODIUM,[2],141.4 MEQ/L
same,TOTAL BILIRUBIN,[2],0.1 mg/dL
same,TOTAL PROTEIN,[2],5.57 G/DL
same,URIC ACID,[2],0.53 mg/dL
same,ABSOLUTE BASOPHIL,[3],0 CELLS/uL
same,ABSOLUTE EOSINOPHIL,[3],91.33 CELLS/uL
same,ABSOLUTE LYMPHOCYTE,[3],12830 CELLS/uL
same,ABSOLUTE MONOCYTE,[3],122 CELLS/uL
same,ABSOLUTE SEGMENTED NEUTROPHIL,[3],2190 CELLS/uL
same,BASOPHIL,[3],0%
same,EOSINOPHIL,[3],0.67%
same,ERYTHROCYTE COUNT,[3],5.93 x10E6/uL
same,HEMATOCRIT,[3],36.47%
same,HEMOGLOBIN,[3],14.23 G/DL
same,LEUKOCYTE COUNT,[3],15.23 x10E3/uL
same,LYMPHOCYTE,[3],85%
same,MEAN CORPUSCULAR HEMOGLOBIN,[3],24.1 pg
same,MEAN CORPUSCULAR HEMOGLOBIN CONCENTRATION,[3],39.03 G/DL
same,MEAN CORPUSCULAR VOLUME,[3],61.63 fL
same,MONOCYTE,[3],0.67%
same,NEUTROPHIL,[3],13.67%
same,NUCLEATED RED BLOOD CELLS,[3],0.33 /100WBC
same,PLATELET COUNT,[3],1323.33 x10E3/uL
same,ALANINE AMINOTRANSFERASE,[3],59 u/L
same,ALBUMIN,[3],3.77 G/DL
same,ALKALINE PHOSPHATASE,[3],246.33 u/L
same,ASPARTATE AMINOTRANSFERASE,[3],81.67 u/L
same,BLOOD UREA NITROGEN,[3],13.33 mg/dL
same,CARBON DIOXIDE,[3],25.67 mmol/L
same,CHLORIDE,[3],102.67 MEQ/L
same,CHOLESTEROL,[3],61.67 mg/dL
same,CREATINE PHOSPHOKINASE,[3],253 u/L
same,CREATININE,[3],0.21 mg/dL
same,GLUCOSE,[3],193 mg/dL
same,LACTATE DEHYDROGENASE,[3],151.67 u/L
same,LIPASE,[3],10 u/L
same,PHOSPHORUS,[3],13.27 mg/dL
same,POTASSIUM,[3],5.91 MEQ/L
same,SODIUM,[3],142.47 MEQ/L
same,TOTAL BILIRUBIN,[3],0.13 mg/dL
same,TOTAL PROTEIN,[3],5.57 G/DL
same,URIC ACID,[3],2.37 mg/dL

# Source: ChEMBL document CHEMBL3885881, “DrugMatrix”
